The numbers were not newly measured in patent US10537125B2, “Chlorine dioxide gas releasing package label insert for enhancing microbial safety of food” (priority 2016, dated 2020), which cites them from elsewhere.

The test system of data set [1] is Salmonella. Conditions: constant ClO2 0.5 mg/L air for 15, 30, and 60 min.
For data set [2] the following is noted: at 20° C. and 760 mm Hg.
Data set [3] concerns Salmonella. Conditions: one-time application, treatment time 6 min to 120 min.

`[O][Cl+][O-]` [ClO2, chlorine dioxide]: in the data set with Salmonella [1], the “reduction of Salmonella on mung bean sprouts” value is reported as “up to 4 log CFU Salmonella/g”. In addition, the solubility in water entry in data set [2] is “about 70 g/L”. Moreover, the “Salmonella inactivation range reported by others” value with Salmonella [3] is recorded as 1.54-5.15 log.
